Where “and” joins values, the source holds several entries; their conditions need not be identical. Equal entries are not always repeated.
biological target: T1, Integrin alpha-IIb/beta-3 (Homo sapiens, UniProt P05106+P08514); test: Inhibition of vWF binding to GPIIb/IIIIa receptor; type: protein-complex assay
T1 sequence (P05106 27-788 limits assumed): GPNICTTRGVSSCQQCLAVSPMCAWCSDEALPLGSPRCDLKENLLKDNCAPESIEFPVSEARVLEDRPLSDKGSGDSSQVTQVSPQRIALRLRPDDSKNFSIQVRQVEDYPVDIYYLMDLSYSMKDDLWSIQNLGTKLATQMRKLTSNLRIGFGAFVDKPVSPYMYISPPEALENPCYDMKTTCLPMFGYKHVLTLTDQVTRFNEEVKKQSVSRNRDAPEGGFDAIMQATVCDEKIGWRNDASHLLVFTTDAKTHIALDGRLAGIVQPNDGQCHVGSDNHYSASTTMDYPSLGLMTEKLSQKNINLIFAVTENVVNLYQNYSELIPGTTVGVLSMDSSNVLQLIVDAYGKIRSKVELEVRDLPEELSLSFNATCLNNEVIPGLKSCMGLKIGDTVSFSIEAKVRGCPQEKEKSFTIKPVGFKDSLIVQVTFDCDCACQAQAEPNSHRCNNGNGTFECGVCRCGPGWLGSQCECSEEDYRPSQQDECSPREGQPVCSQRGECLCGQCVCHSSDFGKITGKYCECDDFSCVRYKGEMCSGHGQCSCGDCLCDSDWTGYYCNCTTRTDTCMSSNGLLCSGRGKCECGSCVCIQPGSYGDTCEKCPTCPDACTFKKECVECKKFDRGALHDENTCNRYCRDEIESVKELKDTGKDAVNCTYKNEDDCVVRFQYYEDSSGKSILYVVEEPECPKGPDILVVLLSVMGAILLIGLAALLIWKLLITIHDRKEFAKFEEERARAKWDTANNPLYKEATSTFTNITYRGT
T1 sequence (P08514 32-887 limits assumed): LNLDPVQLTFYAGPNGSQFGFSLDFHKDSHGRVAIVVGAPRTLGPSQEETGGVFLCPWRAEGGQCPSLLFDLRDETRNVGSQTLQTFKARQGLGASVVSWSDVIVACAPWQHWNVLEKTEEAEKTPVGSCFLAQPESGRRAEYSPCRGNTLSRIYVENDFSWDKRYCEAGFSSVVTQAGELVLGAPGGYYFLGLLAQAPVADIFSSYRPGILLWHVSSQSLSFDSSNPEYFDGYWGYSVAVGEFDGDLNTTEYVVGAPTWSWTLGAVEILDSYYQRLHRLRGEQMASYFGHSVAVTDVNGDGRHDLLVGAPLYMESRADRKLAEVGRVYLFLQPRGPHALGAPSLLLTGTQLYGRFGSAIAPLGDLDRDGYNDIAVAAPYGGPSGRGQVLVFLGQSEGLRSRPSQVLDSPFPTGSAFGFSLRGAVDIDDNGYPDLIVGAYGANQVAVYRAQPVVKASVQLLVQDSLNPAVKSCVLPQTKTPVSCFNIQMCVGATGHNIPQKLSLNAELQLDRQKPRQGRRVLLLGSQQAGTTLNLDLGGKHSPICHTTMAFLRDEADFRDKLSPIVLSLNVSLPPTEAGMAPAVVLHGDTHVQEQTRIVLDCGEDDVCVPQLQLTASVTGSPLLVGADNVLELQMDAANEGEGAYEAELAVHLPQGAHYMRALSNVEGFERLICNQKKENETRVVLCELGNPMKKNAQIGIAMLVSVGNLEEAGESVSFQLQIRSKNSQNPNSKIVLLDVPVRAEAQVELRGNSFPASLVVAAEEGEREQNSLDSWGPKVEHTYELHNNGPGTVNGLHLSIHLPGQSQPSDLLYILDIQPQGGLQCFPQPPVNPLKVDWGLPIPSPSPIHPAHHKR
T1 sequence (P08514 891-1039 limits assumed): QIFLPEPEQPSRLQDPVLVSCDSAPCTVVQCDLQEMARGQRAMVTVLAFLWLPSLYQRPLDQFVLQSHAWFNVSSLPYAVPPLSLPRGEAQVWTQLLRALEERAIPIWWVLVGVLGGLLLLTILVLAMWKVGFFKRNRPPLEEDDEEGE

Row | IC50 [nM] | Structure (SMILES)
1 | 4000 | NC(N)=NCCC[C@H](N)C(=O)NCC(=O)N[C@@H](CC(=O)O)C(=O)O

biological target: not listed separately; test: Inhibition of fibronectin binding to GPIIb/IIIIa fibronectin receptor

Row | IC50 [nM] | Structure (SMILES)
2 | 510 | NC(N)=NCCC[C@H](N)C(=O)NCC(=O)N[C@@H](CC(=O)O)C(=O)O
3 | > 100000 | O=C(O)COc1ccc(C(=O)CNC(=O)c2cc3c(s2)CCNC3)cc1OCC(=O)O

species: Homo sapiens; test: Inhibitory activity against ADP-mediated human platelet aggregation in human platelet rich plasma; type: functional

Row | Structure (SMILES) | IC50 [nM]
4 | O=C(O)COc1ccc(C(=O)CNC(=O)CCCC2CCNCC2)cc1OCC(=O)O | 9000
5 | O=C(O)COc1ccc(C(=O)CNC(=O)c2sc3c(c2Cc2ccccc2)CNCC3)cc1OCC(=O)O | > 10000
6 | NC(N)=NCCC[C@H](N)C(=O)NCC(=O)N[C@@H](CC(=O)O)C(=O)O | 87000
7 | O=C(O)COc1cc(OCC(=O)O)cc(C(=O)CNC(=O)c2cc3c(s2)CCNC3)c1 | > 10000
8 | Cc1c(C(=O)NCC(=O)c2ccc(OCC(=O)O)c(OCC(=O)O)c2)sc2c1CNCC2 | 2500
9 | O=C(O)COc1ccc(C(=O)CNC(=O)C2CCNCC2)cc1OCC(=O)O | 9800
10 | NCC1CCC(C(=O)NCC(=O)c2ccc(OCC(=O)O)c(OCC(=O)O)c2)CC1 (centres undefined) | 4300
11 | O=C(O)COc1ccc(C(=O)CNC(=O)CC2CCNCC2)cc1OCC(=O)O | 10000
12 | O=C(O)CCc1ccc(C(=O)CNC(=O)c2cc3c(s2)CCNC3)cc1 | > 10000

Molecules with a lower IC50, results first:

Row | IC50 [nM] | Structure (SMILES)
13 | 470 | O=C(O)COc1cnc(C(=O)CNC(=O)c2cc3c(s2)CCNC3)cc1OCC(=O)O
14 | 1600 | O=C(O)COc1ccc(C(=O)CNC(=O)c2cc3c(s2)CNC3)cc1OCC(=O)O
15 | 150 | O=C(O)COc1ccc(C(=O)CNC(=O)c2cc3c(s2)CCNCC3)cc1OCC(=O)O
16 | 160 | O=C(O)COc1ccc(C(=O)CNC(=O)c2cc3c(s2)CCNC3)cc1OCC(=O)O
17 | 1900 | O=C(O)COc1ccc(C(=O)CNC(=O)c2cc3c(s2)CCCNC3)cc1OCC(=O)O
18 | 1200 | O=C(O)COc1ccc(C(=O)CNC(=O)c2cc3c(s2)CCNC3)cc1
19 | 1500 | O=C(O)COc1ccc(C(=O)CNC(=O)c2cc3c(s2)CCNC3)c(OCC(=O)O)c1
20 | 720 | O=C(O)COc1ccc(C(=O)CNC(=O)c2cc3c(s2)CCNC3)nc1
21 | 230 | O=C(O)COc1ccc(C(=O)CNC(=O)c2cc3c(s2)CNCC3)cc1OCC(=O)O
22 | 350 | O=C(O)COc1ccc(C(=O)CNC(=O)CCC2CCNCC2)cc1OCC(=O)O

biological target: T1, Integrin alpha-IIb/beta-3; test: Biotinylated fibrinogen binding to alpha IIb beta-3 integrin; type: protein-complex assay

Row | Structure (SMILES) | IC50
23 | O=C(O)COc1ccc(C(=O)CNC(=O)c2sc3c(c2Cc2ccccc2)CNCC3)cc1OCC(=O)O | 62 nM
24 | O=C(O)COc1cc(OCC(=O)O)cc(C(=O)CNC(=O)c2cc3c(s2)CCNC3)c1 | > 1000 nM
25 | Cc1c(C(=O)NCC(=O)c2ccc(OCC(=O)O)c(OCC(=O)O)c2)sc2c1CNCC2 | 18 nM
26 | O=C(O)COc1ccc(C(=O)CNC(=O)C2CCNCC2)cc1OCC(=O)O | > 1000 nM
27 | O=C(O)COc1ccc(C(=O)CNC(=O)CC2CCNCC2)cc1OCC(=O)O | > 100 nM
28 | O=C(O)CCc1ccc(C(=O)CNC(=O)c2cc3c(s2)CCNC3)cc1 | 80 nM

More lines, now with the values ahead:

Row | IC50 | Structure (SMILES)
29 | 9.8 nM | O=C(O)COc1cnc(C(=O)CNC(=O)c2cc3c(s2)CCNC3)cc1OCC(=O)O
30 | 6 nM | O=C(O)COc1ccc(C(=O)CNC(=O)c2cc3c(s2)CCNCC3)cc1OCC(=O)O
31 | 4.7 nM and 5.6 nM | O=C(O)COc1ccc(C(=O)CNC(=O)c2cc3c(s2)CCNC3)cc1OCC(=O)O
32 | 8.7 nM | O=C(O)COc1ccc(C(=O)CNC(=O)c2cc3c(s2)CCCNC3)cc1OCC(=O)O
33 | 31 nM | O=C(O)COc1ccc(C(=O)CNC(=O)c2cc3c(s2)CCNC3)cc1
34 | > 100 nM | O=C(O)COc1ccc(C(=O)CNC(=O)c2cc3c(s2)CCNC3)c(OCC(=O)O)c1
35 | 100 nM | O=C(O)COc1ccc(C(=O)CNC(=O)c2cc3c(s2)CCNC3)nc1
36 | 1.4 nM | O=C(O)COc1ccc(C(=O)CNC(=O)c2cc3c(s2)CNCC3)cc1OCC(=O)O
37 | 42 nM | O=C(O)COc1ccc(C(=O)CNC(=O)CCC2CCNCC2)cc1OCC(=O)O

biological target: T1, Integrin alpha-IIb/beta-3; test: Inhibition of vWF binding to alphaIIb-beta3 integrin; type: protein-complex assay

Row | IC50 [nM] | Structure (SMILES)
38 | 28 | O=C(O)COc1ccc(C(=O)CNC(=O)c2cc3c(s2)CCNC3)cc1OCC(=O)O

biological target: T1, Integrin alpha-IIb/beta-3; test: Inhibition of Vitronectin binding to GPIIb/IIIIa Vitronectin receptor; type: protein-complex assay

Row | IC50 [nM] | Structure (SMILES)
39 | 1400 | NC(N)=NCCC[C@H](N)C(=O)NCC(=O)N[C@@H](CC(=O)O)C(=O)O
40 | > 100000 | O=C(O)COc1ccc(C(=O)CNC(=O)c2cc3c(s2)CCNC3)cc1OCC(=O)O

biological target: T1, Integrin alpha-IIb/beta-3; test: Inhibition of biotinylated fibrinogen binding to alphaIIb-beta3 integrin; type: protein-complex assay

Row | IC50 [nM] | Structure (SMILES)
41 | > 100 | O=C(O)COc1ccc(C(=O)CNC(=O)CCCC2CCNCC2)cc1OCC(=O)O
42 | 76 | NC(N)=NCCC[C@H](N)C(=O)NCC(=O)N[C@@H](CC(=O)O)C(=O)O
43 | > 100 | O=C(O)COc1ccc(C(=O)CNC(=O)c2cc3c(s2)CNC3)cc1OCC(=O)O
44 | 730 | NCC1CCC(C(=O)NCC(=O)c2ccc(OCC(=O)O)c(OCC(=O)O)c2)CC1 (centres undefined)
